Patent publication EP0322748B1, “Antibiotic NK86-0279, process for production of the same and application of the same” (NIPPON KAYAKU KABUSHIKI KAISHA, priority 1987, dated 1989)
≈ marks a conversion by molar mass, not a printed value.

Key:
solubility = format: physicochemical
[1] = test system: human melanoma cells (A375); assay: growth-inhibitory effect on human melanoma cells, dye exclusion method; format: cell-based
Description: (§1) The growth-inhibitory effects of the compound of the present invention on mouse melanoma cells (B16) and human melanoma cells (A375) were examined. A 96-well plate was inoculated with mouse melanoma cells at a ratio of 1.5 x 10³ cells per well, while another 96-well plate was inoculated with human melanoma cells at a ratio of 1.0 x 10³ per well. These cells were incubated in an incubator at 37°C under 5 % CO₂. Then the compound of the present invention was added thereto at various concentrations. Cells in each well were counted by the dye exclusion method 65 hours after the addition to thereby evaluate the growth-inhibitory effect of the test compound on the mouse melanoma cells and that on the human melanoma cells.

[2] = test system: cancer of the mouse colon (colon 26); assay: anti-cancer action against grafted mouse colon cancer, prolongation of life; format: in vivo, BALB/c mouse
Excerpt: The anti-cancer action of the compound of the present invention against the cancer of the mouse colon (colon 26) was examined. A cancer debris of mouse colon having an area of 2 mm³ was grafted into a subcutaneous portion of the left body side of a 6 week-old male BALB/c mouse, and the compound of the present invention was intraperitoneally administered to the mouse in various concentrations every day from the next day of the graft once a day for 9 days. The general conditions of the mouse were observed every day after the initiation of the administration. The percentage prolongation of life (T/C) of the mouse with respect to the compound of the present invention was determined from the ratio of the average survival time on the groups of administration of the compound of the present invention relative to that on the control group.

Rhizopus hangchao = assay: antifungal spectrum (minimum inhibitory concentration on agar); format: cell-based; conditions: Czapek Dox solution agar
Excerpt: (§2) The antifungal spectrum of the compound of the present invention was examined.

Glomerella cingulata = assay: as above; format: cell-based; conditions: Colletotrichum gloeosporioides; Czapek Dox solution agar
Excerpt: as §2

Saccharomyces cerevisiae = assay: as above; format: cell-based; conditions: Czapek Dox solution agar
Excerpt: as §2

Aspergillus oryzae = assay: as above; format: cell-based; conditions: Czapek Dox solution agar
Excerpt: as §2

[3] = test system: Sporobolomyces salmonicolor; assay: as above; format: cell-based; conditions: Czapek Dox solution agar
Excerpt: as §2

Botrytis cinerea = assay: as above; format: cell-based; conditions: potato sucrose agar medium was used
Excerpt: as §2

Candida albicans = assay: as above; format: cell-based; conditions: Czapek Dox solution agar
Excerpt: as §2

Fusarium roseum f. sp. = assay: as above; format: cell-based; conditions: Fusarium sambucinum; Czapek Dox solution agar
Excerpt: as §2

Mucor javanicus = assay: as above; format: cell-based; conditions: Czapek Dox solution agar
Excerpt: as §2

Torula herbarum = assay: as above; format: cell-based; conditions: Czapek Dox solution agar
Excerpt: as §2

[4] = test system: bovine adrenal capillary endothelial cells; assay: growth-inhibitory effect on endothelial cells, Coulter counter; format: cell-based; conditions: Bos taurus, Endothelial cell, 72 h, three days after the addition
Description: The growth-inhibitory effect of the compound of the present invention on endothelial cells was examined. A 96-well plate was inoculated with bovine adrenal capillary endothelial cells at a ratio of 1 x 10⁴ cells per well. One day after the inoculation, the compound of the present invention was added thereto at various concentrations. Cells in each well were counted with a Coulter counter three days after the addition to thereby evaluate the growth-inhibitory effect of the test compound on the capillary endothelial cells. […] Thus the IC₅₀ of the compound of the present invention on the endothelial cells was 0.0003 µg/ml, showing a strong growth-inhibitory effect.

[5] = test system: mouse melanoma cells (B16); assay: growth-inhibitory effect on mouse melanoma cells, dye exclusion method; format: cell-based
Description: as §1

[6] = test system: human colonic cancer cells (SWlll6); assay: growth-inhibitory effect on human colonic cancer cells, dye exclusion method; format: cell-based
Description: as §1, with “colonic cancer” for “melanoma”, “(Colon 26)” for “(B16)”, “(SWlll6)” for “(A375)”, “3.0” for “1.0”, “CO₂ for 24 hours.” for “CO₂.”, “hours and 96 hours” for “hours”

HeLa S₃ cells = assay: growth-inhibitory effect on HeLa S3 culture cells, dye exclusion method; format: cell-based; conditions: Homo sapiens, 72 h, three days after the addition
Description: The growth-inhibitory effect of the compound of the present invention on HeLa S₃ culture cells was examined. A 96-well plate was inoculated with HeLa S₃ cells at a ratio of 1.5 x 10³ cells/well and incubated in an incubator at 37°C under 5% CO2 for 24 hours. One day after the inoculation, the compound of the present invention was added to the culture medium at various concentrations. Three days after the addition, cells in each well were counted by the dye exclusion method to thereby evaluate the growth-inhibitory effect of the compound of the present invention at various concentrations on HeLa S₃ cells.

CCC1C=CC=CCC(C)C(O)C(C)(O)C(=O)C(C)C(O)C(C)C(=O)C(C)C(O)C(C)C=CC(=O)OC2C(C)C(CC1)OC1(OC(CC(C)O)C(C)CC1=O)C2CC (centres unmarked) [NK86-0279]
solubility (solubility; in hexane): hardly soluble | solubility (solubility; in methanol, acetone, ethyl acetate and dimethyl sulfoxide): soluble | solubility (solubility; in organic solvents such as methanol, acetone, ethyl acetate and ethanol): soluble | solubility (solubility; in water): hardly soluble | IC50 ([1]; A-375, human melanoma cells (A375), 65 hours after the addition, read-out: IC₅₀): 1.87 µg/mL (≈ 2.28 µM) | inhibition at 0.0061 µg/mL ([1]; Homo sapiens, A-375, 65 h, A375, 0.0061 µg/ml, read-out: Growth-inhibitory ratio): 19.7% | inhibition at 0.024 µg/mL ([1]; Homo sapiens, A-375, 65 h, A375, 0.024 µg/ml, read-out: Growth-inhibitory ratio): 39.7% | inhibition at 0.098 µg/mL ([1]; Homo sapiens, A-375, 65 h, A375, 0.098 µg/ml, read-out: Growth-inhibitory ratio): 49.4% | inhibition at 0.39 µg/mL ([1]; Homo sapiens, A-375, 65 h, A375, 0.39 µg/ml, read-out: Growth-inhibitory ratio): 43.7% | inhibition at 1.56 µg/mL ([1]; Homo sapiens, A-375, 65 h, A375, 1.56 µg/ml, read-out: Growth-inhibitory ratio): 44.4% | inhibition at 6.25 µg/mL ([1]; Homo sapiens, A-375, 65 h, A375, 6.25 µg/ml, read-out: Growth-inhibitory ratio): 83.6% | inhibition at 25 µg/mL ([1]; Homo sapiens, A-375, 65 h, A375, 25 µg/ml, read-out: Growth-inhibitory ratio): 105% | inhibition at 100 µg/mL ([1]; Homo sapiens, A-375, 65 h, A375, 100 µg/ml, read-out: Growth-inhibitory ratio): 105% | T/C (percentage prolongation of life) ([2]; 0.063 mg/kg intraperitoneally once a day for 9 days): 136% | T/C (percentage prolongation of life) ([2]; 0.125 mg/kg intraperitoneally once a day for 9 days): 130% | T/C (percentage prolongation of life) ([2]; 0.250 mg/kg intraperitoneally once a day for 9 days): 153% | T/C (percentage prolongation of life) ([2]; 0.500 mg/kg intraperitoneally once a day for 9 days): 143% | MIC (Rhizopus hangchao): 6.25 µg/mL (≈ 7.63 µM) | MIC (Glomerella cingulata): 6.25 µg/mL (≈ 7.63 µM) | MIC (Saccharomyces cerevisiae): > 100 µg/mL | MIC (Aspergillus oryzae): 3.13 µg/mL (≈ 3.82 µM) | MIC [3]: 6.25 µg/mL (≈ 7.63 µM) | MIC (Botrytis cinerea): 12.5 µg/mL (≈ 15.3 µM) | MIC (Candida albicans): > 100 µg/mL | MIC (Fusarium roseum f. sp.): 6.25 µg/mL (≈ 7.63 µM) | MIC (Mucor javanicus): > 100 µg/mL | MIC (Torula herbarum): 3.13 µg/mL (≈ 3.82 µM) | inhibition at 0.000128 µg/mL ([4]; 0.000128 µg/ml, read-out: Groth-inhibitory ratio): 35.4% | inhibition at 0.00064 µg/mL ([4]; 0.00064 µg/ml, read-out: Groth-inhibitory ratio): 63.2% | inhibition at 0.0032 µg/mL ([4]; 0.0032 µg/ml, read-out: Groth-inhibitory ratio): 78.4% | inhibition at 0.016 µg/mL ([4]; 0.016 µg/ml, read-out: Groth-inhibitory ratio): 89.7% | IC50 ([4]; endothelial cells, read-out: IC₅₀): 0.0003 µg/mL (≈ 0.000366 µM) | inhibition at 0.0061 µg/mL ([5]; Mus musculus, 65 h, B16, 0.0061 µg/ml, read-out: Growth-inhibitory ratio): 5.3% | inhibition at 0.024 µg/mL ([5]; Mus musculus, 65 h, B16, 0.024 µg/ml, read-out: Growth-inhibitory ratio): 36.8% | inhibition at 0.098 µg/mL ([5]; Mus musculus, 65 h, B16, 0.098 µg/ml, read-out: Growth-inhibitory ratio): 43.1% | inhibition at 0.39 µg/mL ([5]; Mus musculus, 65 h, B16, 0.39 µg/ml, read-out: Growth-inhibitory ratio): 45.3% | inhibition at 1.56 µg/mL ([5]; Mus musculus, 65 h, B16, 1.56 µg/ml, read-out: Growth-inhibitory ratio): 48.9% | inhibition at 6.25 µg/mL ([5]; Mus musculus, 65 h, B16, 6.25 µg/ml, read-out: Growth-inhibitory ratio): 89.7% | inhibition at 25 µg/mL ([5]; Mus musculus, 65 h, B16, 25 µg/ml, read-out: Growth-inhibitory ratio): 105% | inhibition at 100 µg/mL ([5]; Mus musculus, 65 h, B16, 100 µg/ml, read-out: Growth-inhibitory ratio): 105% | IC50 ([5]; mouse melanoma cells (B16), 65 hours after the addition, read-out: IC₅₀): 1.62 µg/mL (≈ 1.98 µM) | inhibition at 0.0061 µg/mL ([6]; Homo sapiens, SW 1116, SWlll6, 0.0061 µg/ml, read-out: Growth-inhibitory ratio): 33.3% | inhibition at 0.024 µg/mL ([6]; Homo sapiens, SW 1116, SWlll6, 0.024 µg/ml, read-out: Growth-inhibitory ratio): 51.7% | inhibition at 0.098 µg/mL ([6]; Homo sapiens, SW 1116, SWlll6, 0.098 µg/ml, read-out: Growth-inhibitory ratio): 54.6% | inhibition at 0.39 µg/mL ([6]; Homo sapiens, SW 1116, SWlll6, 0.39 µg/ml, read-out: Growth-inhibitory ratio): 53.5% | inhibition at 1.56 µg/mL ([6]; Homo sapiens, SW 1116, SWlll6, 1.56 µg/ml, read-out: Growth-inhibitory ratio): 52.2% | inhibition at 6.25 µg/mL ([6]; Homo sapiens, SW 1116, SWlll6, 6.25 µg/ml, read-out: Growth-inhibitory ratio): 80.8% | inhibition at 25 µg/mL ([6]; Homo sapiens, SW 1116, SWlll6, 25 µg/ml, read-out: Growth-inhibitory ratio): 91.9% | inhibition at 100 µg/mL ([6]; Homo sapiens, SW 1116, SWlll6, 100 µg/ml, read-out: Growth-inhibitory ratio): 90.7% | IC50 ([6]; human colonic cancer cells (SWlll6), read-out: IC₅₀): 0.021 µg/mL (≈ 0.0256 µM) | IC50 (HeLa S₃ cells; HeLa S₃ cells, read-out: IC₅₀): 0.0027 µg/mL (≈ 0.0033 µM) | inhibition at 0.00064 µg/mL (HeLa S₃ cells; HeLa, 0.00064 µg/ml, read-out: Growth-inhibitory ratio): 22.9% | inhibition at 0.0032 µg/mL (HeLa S₃ cells; HeLa, 0.0032 µg/ml, read-out: Growth-inhibitory ratio): 53.5% | inhibition at 0.016 µg/mL (HeLa S₃ cells; HeLa, 0.016 µg/ml, read-out: Growth-inhibitory ratio): 61.2% | inhibition at 0.08 µg/mL (HeLa S₃ cells; HeLa, 0.08 µg/ml, read-out: Growth-inhibitory ratio): 73.5% | inhibition at 0.4 µg/mL (HeLa S₃ cells; HeLa, 0.4 µg/ml, read-out: Growth-inhibitory ratio): 81.2%
